{
  "source": "patent US20110305748A1",
  "about": "(priority 2010, published 2011)",
  "system": "influenza",
  "design": "species or system mice",
  "conditions": "mouse, in vivo",
  "data": [
    {"substance": "GLA", "values": [
      {"measurement": "Th1 T cell responses (antigen-specific IgG2a titers and IFNγ production)", "result": "dramatic increase in antigen-specific IgG2a titers and IFNγ production"}
    ]}
  ]
}
